Reference: BindingDB's records for patent US20250213705 (Bright Peak Therapeutics, 2025)

Tests used:
[1] = target: T1, Glutamate carboxypeptidase 2 (Homo sapiens, UniProt Q04609); experiment: Inhibition Assay
Description: Prepare a working solution of 100 μM Amplex Red reagent containing 0.25 U/mL HRP, 0.08 U/mL L-glutamate oxidase, 0.5 U/mL 1-glutamate-pyruvate transaminase, 200 μM L-alanine and keep protected from light. […] Final concentration is 5 nM. Transfer 10 μl/well of the inhibitor solution previously prepared in a separate 96 wells/plate. […] Incubate the reactions for 30 min at 37° C., protected from light. Because the assay is continuous (not terminated), fluorescence may be measured at multiple time points to follow the kinetics of the reactions. Measure the fluorescence in a fluorescence microplate reader using excitation in the range of 530-560 nm and emission detection at ˜590 nm. Ec50s were determined with GraphPad Prism. Ki is calculated based on Cheng-Prusoff equation.

[2] = target: T1, Glutamate carboxypeptidase 2; experiment: SPR Analysis
Description: The interaction of PSMA-binding variants with human FOLH1 was measured with Surface Plasmon Resonance (SPR) technology. Biotinylated FOLH1 was captured at a concentration of 30 μg/mL onto a Streptavidin chip. […] After each cycle, needles were washed with 50% DMSO. To measure the association to the FOLH1 protein, the samples were injected with a flow rate of 30 μL/min for 90 s, followed by 1200 s buffer only to detect the dissociation. The used running buffer was 1×PBS with 0.05% Tween20 and 2% DMSO. The relative response units (RU, Y-axis) are plotted against time (s, X-axis) and analyzed in a kinetic 1:1 binding model. In a different setup, biotinylated FOLH1 was captured at a concentration of 0.8 μg/mL and the running buffer was 1×PBS with 0.05% Tween20.

T1 sequence (Q04609 whole entry): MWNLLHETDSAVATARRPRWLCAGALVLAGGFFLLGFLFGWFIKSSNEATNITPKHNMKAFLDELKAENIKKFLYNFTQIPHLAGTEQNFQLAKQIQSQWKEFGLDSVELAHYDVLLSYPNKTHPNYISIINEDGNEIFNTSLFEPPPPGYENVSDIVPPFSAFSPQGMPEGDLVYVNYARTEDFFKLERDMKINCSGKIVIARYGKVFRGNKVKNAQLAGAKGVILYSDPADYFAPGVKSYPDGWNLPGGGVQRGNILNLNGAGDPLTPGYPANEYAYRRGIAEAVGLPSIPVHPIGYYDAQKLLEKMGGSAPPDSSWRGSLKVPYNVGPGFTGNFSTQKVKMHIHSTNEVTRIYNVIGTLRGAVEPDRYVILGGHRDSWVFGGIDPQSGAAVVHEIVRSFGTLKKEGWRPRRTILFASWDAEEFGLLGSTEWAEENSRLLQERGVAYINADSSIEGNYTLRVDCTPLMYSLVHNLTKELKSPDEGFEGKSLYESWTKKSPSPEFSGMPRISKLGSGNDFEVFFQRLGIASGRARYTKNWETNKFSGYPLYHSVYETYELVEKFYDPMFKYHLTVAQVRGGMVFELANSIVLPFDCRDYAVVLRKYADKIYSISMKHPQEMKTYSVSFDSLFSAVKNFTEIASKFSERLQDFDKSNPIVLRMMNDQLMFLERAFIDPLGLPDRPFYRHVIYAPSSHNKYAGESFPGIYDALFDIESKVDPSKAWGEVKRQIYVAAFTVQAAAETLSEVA

Question: How did the IC50 [1] turn out when `CC(=O)NCCOCCOCCOCCC(=O)NC[C@H]1CC[C@H](C(=O)N[C@@H](Cc2ccc3ccccc3c2)C(=O)NCCCC[C@H](NC(=O)N[C@@H](CC(=O)O)C(=O)O)C(=O)O)CC1` [US20250213705, Compound 23] was run?
Answer: 7010 nM

Question: And the Ki [1]?
Answer: 50.1 nM

Question: And the Kd [2]?
Answer: 120 nM

Question: With `CC(=O)NCCOCCOCCOCCC(=O)NC[C@H]1CC[C@H](C(=O)N[C@@H](Cc2ccc3ccccc3c2)C(=O)NCCCC[C@H](NC(=O)N[C@@H](CS)C(=O)O)C(=O)O)CC1` [US20250213705, Compound 28] as the compound, how does the IC50 [1] read?
Answer: 21300 nM

Question: What about the Ki [1] of the same compound?
Answer: 152 nM

Question: Which IC50 [1] does the source give for `CC(=O)NCCOCCOCCOCCC(=O)NC[C@H]1CC[C@H](C(=O)N[C@@H](CCCCNC(=O)C(F)(F)F)C(=O)NCCCC[C@H](NC(=O)N[C@@H](CCC(=O)O)C(=O)O)C(=O)O)CC1` [US20250213705, Compound 54] here?
Answer: 89 nM

Question: And the Ki [1]?
Answer: 0.636 nM

Question: How did the IC50 [1] turn out when `CC(=O)NCCOCCOCCOCCC(=O)N(CCCOc1cc(C#N)cc(C#N)c1)CC(=O)N[C@@H](Cc1ccc2ccccc2c1)C(=O)NCCCC[C@H](NC(=O)N[C@@H](CCC(=O)O)C(=O)O)C(=O)O` [US20250213705, Compound 78] was run?
Answer: 6.95 nM

Question: And the Ki [1]?
Answer: 0.05 nM

Question: And the Kd [2]?
Answer: 0.43 nM

Question: What does the source list for `CC(=O)NCCOCCOCCOCCC(=O)N1C[C@H](NC(=O)CCCOc2cc(C#N)cc(C#N)c2)C[C@H]1C(=O)N[C@@H](Cc1ccc2ccccc2c1)C(=O)NCCCC[C@H](NC(=O)N[C@@H](CCC(=O)O)C(=O)O)C(=O)O` [US20250213705, Compound 80]?
Answer: IC50 [1]: 2.35 nM; Ki [1]: 0.017 nM; Kd [2]: 2.46 nM

Question: Which results are given for `CC(=O)NCCOCCOCCOCCC(=O)N[C@@H]1C[C@@H](C(=O)N[C@@H](Cc2ccc3ccccc3c2)C(=O)NCCCC[C@H](NC(=O)N[C@@H](CCC(=O)O)C(=O)O)C(=O)O)N(C(=O)COc2cc(C#N)cc(C#N)c2)C1` [US20250213705, Compound 81]?
Answer: IC50 [1]: 10.7 nM; Ki [1]: 0.076 nM; Kd [2]: 4.12 nM

Question: How did the IC50 [1] turn out when `CC(=O)NCCCC[C@H](NC(=O)[C@H]1CC[C@H](CNC(=O)CCOCCOCCOCCNC(C)=O)CC1)C(=O)NCCCC[C@H](NC(=O)N[C@@H](CCC(=O)O)C(=O)O)C(=O)O` [US20250213705, Compound 83] was run?
Answer: 2.87 nM

Question: And the Ki [1]?
Answer: 0.021 nM

Question: What does the source list for `CC(=O)NCCOCCOCCOCCC(=O)N[C@@H](Cc1cccc(C(=O)O)c1)C(=O)NCC(=O)N[C@@H](Cc1ccc2ccccc2c1)C(=O)NCCCC[C@H](NC(=O)N[C@@H](CCC(=O)O)C(=O)O)C(=O)O` [US20250213705, Compound 84]?
Answer: IC50 [1]: 5.11 nM; Kd [2]: 1.05 nM

Question: How did the IC50 [1] turn out when `CC(=O)NCCOCCOCCOCCC(=O)N(CCCOc1cc(C(F)(F)F)cc(C(F)(F)F)c1)CC(=O)N[C@@H](Cc1ccc2ccccc2c1)C(=O)NCCCC[C@H](NC(=O)N[C@@H](CCC(=O)O)C(=O)O)C(=O)O` [US20250213705, Compound 86] was run?
Answer: 59.2 nM

Question: What about the Ki [1] of the same compound?
Answer: 0.423 nM

Question: What about the Kd [2] of the same compound?
Answer: 1.17 nM

Question: For `CC(=O)NCCOCCOCCOCCC(=O)N1C[C@H](NC(=O)CCCOc2cc(C#N)cc(C#N)c2)C[C@H]1C(=O)NCC(=O)N[C@@H](Cc1ccc2ccccc2c1)C(=O)NCCCC[C@H](NC(=O)N[C@@H](CCC(=O)O)C(=O)O)C(=O)O` [US20250213705, Compound 91], which IC50 [1] is on record?
Answer: 26.1 nM

Question: What about the Ki [1] of the same compound?
Answer: 0.187 nM

Question: What about the Kd [2] of the same compound?
Answer: 3.6 nM

Question: Which IC50 [1] does the source give for `CC(=O)NCCOCCOCCOCCC(=O)N[C@@H]1C[C@@H](C(=O)NCC(=O)N[C@@H](Cc2ccc3ccccc3c2)C(=O)NCCCC[C@H](NC(=O)N[C@@H](CCC(=O)O)C(=O)O)C(=O)O)N(C(=O)CCCOc2cc(C#N)cc(C#N)c2)C1` [US20250213705, Compound 92] here?
Answer: 79.7 nM

Question: What about the Ki [1] of the same compound?
Answer: 0.57 nM

Question: What about the Kd [2] of the same compound?
Answer: 1.01 nM

Question: What does the source list for `CC(=O)NCCOCCOCCOCCC(=O)N[C@@H](Cc1ccc(C(=O)O)cc1)C(=O)NCC(=O)N[C@@H](Cc1ccc2ccccc2c1)C(=O)NCCCC[C@H](NC(=O)N[C@@H](CCC(=O)O)C(=O)O)C(=O)O` [US20250213705, Compound 94]?
Answer: IC50 [1]: 1.87 nM; Ki [1]: 0.013 nM; Kd [2]: 2.33 nM
